The results in this text go back to patent publication US7425579B2, “Methods for inhibiting activity of polyamine transporters” (Universite Laval, priority 1998, dated 2008).

One data set has as its system CHO-K1 cells. The data set is described as follows: Reversal of DFMO-induced cytostasis by exogenous spermidine in CHO-K1 cells. The data set is classed as cell-based, Chinese hamster. The protocol:
FIGS. 8A and 8B are graphs representing the time course of the effect of a compound used in a method according to a preferred embodiment of the invention on rescue of DFMO-induced cytostasis by exogenous spermidine. In particular, at time zero, T-47D (panel A) or CHO-K1 (panel B) were seeded at 1×10^4 or 5×10^3 cells/well, respectively, in medium containing 1 mM aminoguanidine, plus either 0.3 μM spermidine (Spd, ●), 2 mM DFMO (□), Spd+DFMO (▪), 50 μM (A) or 100 μM (B) BNSD-X (Δ), BNSD-X+Spd (▴), BNSD-X+DFMO (□), BNSD-X+Spd+DFMO (▾), or vehicle only (∘). At the indicated time, total DNA content/well was determined. Data are presented as the mean±SD for triplicate cultures from one representative experiment;
To determine the ability of polyamine transport antagonists to potentiate DFMO-induced inhibition of cell proliferation in the presence of exogenous polyamines, cells were grown for the indicated period in growth medium supplemented with 1 mM aminoguanidine, and either DFMO (1 to 5 mM), the indicated transport inhibitor (50 or 100 μM), or the combination thereof, as well as increasing concentrations of spermidine (0.1 to 300 μM). Fresh medium was added every other day, and cell mass was determined at various time points during the period of exponential growth, or at the end of the experimental period. For the latter experiments, the FBS supplement was replaced with dextran-coated charcoal-treated FBS (5%, v/v) plus 0.5 μg/ml insulin in the case of T-47D, ZR-75-1 and MCF-7 cells (U.S. Pat. No. 6,083,496).

Another data set has as its system CD-1 mice. The data set is described as follows: Chronic toxicity of BNSD-X, 1% in drinking water for 14 d. To be noted: 1% (w/v) in drinking water. The class given is in vivo. The protocol: To assess the relative toxicity of BNSD-X, the drug was administered as a 1% (w/v) solution in the drinking water to CD-1 mice with ad libitum access for 14 d. Mice were weighed every other day during the experiment. At the end of the experiment, mice were sacrificed, and organs (kidneys, liver, and spleen) were immediately weighed. Organs were then saved in 10% formalin for morphological examination by an in-house pathologist at the CHUL Research Center (Quebec City, Canada). Acute and subacute oral toxicity of BNSD-X was also separately determined by administering the drug by gavage (0-5 g/kg body weight).
The chronic toxicity of BNSD-X was next evaluated by allowing CD-1 mice to drink a 1% (w/v) solution of the drug for 14 d, and then sacrificing animals for the histological examination of the liver, kidneys and spleen.

In data set [1] the test system is MDA-MB-231 human breast cancer xenograft. As to the kind of experiment: MDA-MB-231 human breast cancer xenograft in nude mice. The data set is classed as in vivo, immunodeficient CD-1 mice. The method, then: In particular, the mice have been treated with the following compounds: BNSD-X (1% w/v) (●), 0.3 (w/v) DFMO (□), 0.3% DFMO+BNSD-X (▪), 1% (w/v) DFMO (Δ), or 1% DFMO+BNSD-X (▴). Drugs were dissolved in drinking water which was given ad libitum to the animals. Control mice (∘) received distilled water only;
In particular, the mice have been treated with the following compounds: BNSD-X (1% w/v) (●), 0.3 (w/v) DFMO (□), 0.3% DFMO+BNSD-X (▪), 1% (w/v) DFMO (Δ), or 1% DFMO+BNSD-X (▴). Drugs were dissolved in drinking water which was given ad libitum to the animals. Control mice (∘) received distilled water only; and
In particular, these compounds are BNSD-X (1% w/v), 0.3 (w/v) DFMO, 0.3% DFMO+BNSD-X, 1% (w/v) DFMO, or 1% DFMO+BNSD-X Drugs were dissolved in drinking water which was given ad libitum to the animals. Control mice received distilled water only.
For human xenograft experiments, athymic CD-1 mice were inoculated with 5×10^6 MDA-MB-231 human breast cancer cells (grown in tissue culture incubators to mid-exponential phase) in both sides of the inguinal mammary fat pad. After ˜2 weeks, when the tumor had reached a diameter ˜4 mm (as measured with a caliper), control mice were paired to treated ones in accordance with tumor volume (time zero). Animals were allowed free access to water containing 0, 0.3 or 1% DFMO (w/v), plus or minus 1% (w/v) BNSD-X (7 mice/experimental group). Tumor volume (V) was measured twice weekly with a caliper in 2 dimensions using the approximation V=(L×w^2)/2, where L is the length and w is the width of the xenograft (Bandyopadhyay et al., (2002) Cancer Res. 62:4690-4695). Animals were sacrificed after 39 d (i.e. when tumor size in control mice had reached about 500 mm^3). Mammary tumors were be excised and weighed.
The efficacy of BNSD-X as a chemotherapeutic agent was assessed in the MDA-MB-231 model of human breast cancer xenograft in the nude mouse, a model which is known to be sensitive to polyamine depletion by DFMO (Weeks et al., (2000) Exp Cell Res. 261:293-302). For that purpose, MDA-MB-231 cells were injected in the left and right mammary fat pads of immunodeficient CD-1 mice. Mice were then allowed to drink either BNSD-X at the optimal concentration (1%, w/v), as well as DFMO at either 0.3% or 1% (w/v) plus or minus 1% BNSD-X for 39 days before sacrificing the animals and measuring total final tumor mass (FIG. 12-14). The BNSD-X solution alone or with 0.3% DFMO led to a slight (˜7%) reduction of body weight, which was attenuated by the addition of 1% DFMO (FIG. 13) However, this effect of body weight could largely be accounted on the decreased tumor burden in the BNSD-X treated animals (FIG. 14). […]

As to `NCCCN(CCCN)Cc1ccc(CN(CCCN)CCCN)cc1` [28a, N,N,N′,N′-tetrakis-(3-aminopropyl)-p-diaminoxylene], the “effect on the antiproliferative action of DFMO in the nominal absence of exogenous polyamines, CHO-K1” value in the data set with CHO-K1 cells (100 μM BNSD-X, 2 mM DFMO) is given as “strongly potentiated the antiproliferative effect of DFMO”. Also, the “effect on spermidine-mediated reversal of DFMO-induced growth inhibition, CHO-K1” value in the data set with CHO-K1 cells (DFMO-treated CHO-K1 cells with extracellular spermidine, data not shown) is “afforded increased resistance to exogenous spermidine”. For the same molecule, the “behavior and general body appearance” value in the data set on CD-1 mice is recorded as “no incidence on the behavior nor general body appearance of the animals”. Moreover, the “histological morphology of the liver, kidney and spleen” value in the data set with CD-1 mice (light microscopy) is given as “no observable differences”. Besides, the “reduction of body weight” value in data set [1] (1% (w/v) BNSD-X alone in drinking water) is recorded as about 7%. The “decrease of total tumor mass” value in data set [1] (1% (w/v) BNSD-X as a single agent, 39-d treatment) was found to be 65±10%.
